Key:
[1] = system: PSMA-expressing LNCaP tumor xenografts; assay: Ex vivo biodistribution in LNCaP tumor-bearing mice; conditions: LNCaP tumor-bearing mice, 1 h post injection, mean ± SD, n = 4
Procedure: Biodistribution studies were conducted at 1 h post injection with ^68Ga-labeled AV01017, AV01030, AV01038, HTK03041, and FAPI-04 in LNCaP tumor-bearing mice (Figure 5 and Table S4, Supplementary Materials). The results were consistent with the observation from their PET images. Tumor uptake values for [^68Ga]Ga-AV01017, [^68Ga]Ga-AV01030, [^68Ga]Ga-AV01038, [^68Ga]Ga-HTK03041, and [^68Ga]Ga-FAPI-04 were 4.38 ± 0.55, 5.17 ± 0.51, 4.25 ± 0.86, 23.1 ± 6.11, and 3.15 ± 1.43 %ID/g, respectively. […] Although not statistically significant, the bispecific tracers with a longer linker tend to have a higher blood uptake value (9.24 ± 1.55 %ID/g for [^68Ga]Ga-AV01017; 7.07 ± 0.31%ID/g for [^68Ga]Ga-AV01038; 5.75 ± 0.59 %ID/g for [^68Ga]Ga-AV01030) and a lower tumor-to-blood ratio (0.48 ± 0.11 for [^68Ga]Ga-AV01017; 0.60 ± 0.13 for [^68Ga]Ga-AV01038; 0.89 ± 0.03 for [^68Ga]Ga-AV01030).
(§1) Imaging and biodistribution studies were performed using male NOD.Cg-Rag1tm1Mom Il2rgtm1Wjl/SzJ (NRG) mice following previously published procedures. The experiments were conducted according to the guidelines established by the Canadian Council on Animal Care and approved by Animal Ethics Committee of the University of British Columbia. The mice were briefly sedated by inhalation of 2.5% isoflurane in oxygen, and 100 µL LNCaP (2 × 10^5 cells) or HEK293T:hFAP (8.5 × 10^6 cells) cells were inoculated subcutaneously behind the left shoulder. When the tumor grew to 5–8 mm in diameter over 3–4 weeks and 4–5 weeks for HEK293T:hFAP and LNCaP tumors, respectively, the mice were used for PET/CT imaging and biodistribution studies.
(§2) For biodistribution studies, the mice were injected with the radiotracer (~2–4 MBq) as described above. At 1 h post injection, the mice were euthanized by CO2 inhalation. Blood was withdrawn by cardiac puncture, and organs/tissues of interest were collected, weighed, and counted using a Perkin Elmer (Waltham, MA, USA) Wizard2 2480 automatic gamma counter.

[2] = system: FAP-expressing HEK293T:hFAP tumor xenografts; assay: Ex vivo biodistribution in HEK293T:hFAP tumor-bearing mice; conditions: 1 h post injection, mean ± SD, n = 4
Procedure: Biodistribution studies were also conducted at 1 h post injection with [^68Ga]Ga-AV01017, [^68Ga]Ga-AV01030, [^68Ga]Ga-AV01038, [^68Ga]Ga-HTK03041, and [^68Ga]Ga-FAPI-04 in HEK293T:hFAP tumor-bearing mice (Figure 6 and Table S5, Supplementary Materials). Tumor uptake values for [^68Ga]Ga-AV01017, [^68Ga]Ga-AV01030, [^68Ga]Ga-AV01038, [^68Ga]Ga-HTK03041, and [^68Ga]Ga-FAPI-04 were 2.99 ± 0.37, 3.69 ± 0.81, 3.64 ± 0.83, 0.62 ± 0.19, and 12.5 ± 2.00 %ID/g, respectively. There was a very low tumor uptake in mice injected with [^68Ga]Ga-HTK03041, showing very minimal FAP expression in this tumor model. The uptake levels of these tracers on the major organs and tissues are consistent with the trends observed in the LNCaP tumor-baring mice (Figure 5 and Supplemental Table S4).
as §1, §2

N#C[C@@H]1CC(F)(F)CN1C(=O)CNC(=O)c1ccnc2ccc(OCCCc3cn(CC(=O)N[C@@H](CCCCNC(=O)CN4CCN(CC(=O)[O-])CCN(CC(=O)[O-])CCN(CC(=O)[O-])CC4)C(=O)NCC(=O)NC[C@H]4CC[C@H](C(=O)N[C@@H](Cc5c6ccccc6cc6ccccc56)C(=O)NCCCC[C@H](NC(=O)N[C@@H](CCC(=O)O)C(=O)O)C(=O)O)CC4)nn3)cc12.[68Ga+3] [[^68Ga]Ga-AV01017]
Adrenal glands uptake [1]: 6.24 ± 2.31 %ID/g
Blood uptake [1]: 9.24 ± 1.55 %ID/g
Bone uptake [1]: 4.05 ± 0.86 %ID/g
Brain uptake [1]: 0.18 ± 0.01 %ID/g
Fat uptake [1]: 1.01 ± 0.48 %ID/g
Heart uptake [1]: 4.04 ± 0.28 %ID/g
Kidneys uptake [1]: 30.9 ± 6.89 %ID/g
LNCaP tumor uptake [1]: 4.38 ± 0.55 %ID/g
Lacrimal glands uptake [1]: 0.13 ± 0.27 %ID/g
Large Intestine uptake [1]: 1.76 ± 0.21 %ID/g
Liver uptake [1]: 2.24 ± 0.34 %ID/g
Lungs uptake [1]: 3.76 ± 0.66 %ID/g
Muscle uptake [1]: 1.91 ± 0.43 %ID/g
Pancreas uptake [1]: 5.38 ± 1.29 %ID/g
Salivary glands uptake [1]: 5.98 ± 4.00 %ID/g
Seminal vesicle uptake [1]: 1.12 ± 0.21 %ID/g
Small Intestine uptake [1]: 2.47 ± 0.48 %ID/g
Spleen uptake [1]: 3.73 ± 1.19 %ID/g
Stomach uptake [1]: 0.64 ± 0.11 %ID/g
Testes uptake [1]: 0.69 ± 0.06 %ID/g
Thyroid uptake [1]: 12.7 ± 2.72 %ID/g
Tumor/blood uptake ratio [1]: 0.48 ± 0.11
Tumor/bone uptake ratio [1]: 1.10 ± 0.15
Tumor/kidney uptake ratio [1]: 0.14 ± 0.03
Tumor/muscle uptake ratio [1]: 2.35 ± 0.35
Adrenal glands uptake [2]: 4.06 ± 0.27 %ID/g
Blood uptake [2]: 11.9 ± 3.37 %ID/g
Bone uptake [2]: 5.26 ± 0.32 %ID/g
Brain uptake [2]: 0.21 ± 0.07 %ID/g
Fat uptake [2]: 0.61 ± 0.13 %ID/g
HEK293T:hFAP tumor uptake [2]: 2.99 ± 0.37 %ID/g
Heart uptake [2]: 4.63 ± 0.42 %ID/g
Kidneys uptake [2]: 19.3 ± 2.25 %ID/g
Lacrimal gland uptake [2]: 1.34 ± 0.50 %ID/g
Large Intestine uptake [2]: 1.44 ± 0.20 %ID/g
Liver uptake [2]: 3.40 ± 0.64 %ID/g
Lungs uptake [2]: 5.50 ± 1.26 %ID/g
Muscle uptake [2]: 1.63 ± 0.06 %ID/g
Pancreas uptake [2]: 3.80 ± 0.25 %ID/g
Salivary glands uptake [2]: 6.43 ± 1.03 %ID/g
Seminal vesicle uptake [2]: 1.15 ± 0.33 %ID/g
Small Intestine uptake [2]: 2.14 ± 0.65 %ID/g
Spleen uptake [2]: 3.63 ± 3.60 %ID/g
Stomach uptake [2]: 0.63 ± 0.08 %ID/g
Testes uptake [2]: 1.15 ± 0.86 %ID/g
Thyroid uptake [2]: 10.7 ± 2.15 %ID/g
Tumor/blood uptake ratio [2]: 0.18 ± 0.08
Tumor/bone uptake ratio [2]: 0.44 ± 0.12
Tumor/kidney uptake ratio [2]: 0.11 ± 0.03
Tumor/muscle uptake ratio [2]: 1.25 ± 0.17

N#C[C@@H]1CC(F)(F)CN1C(=O)CNC(=O)c1ccnc2ccc(-c3cn(CC(=O)N[C@@H](CCCCNC(=O)CN4CCN(CC(=O)[O-])CCN(CC(=O)[O-])CCN(CC(=O)[O-])CC4)C(=O)NCC(=O)NC[C@H]4CC[C@H](C(=O)N[C@@H](Cc5c6ccccc6cc6ccccc56)C(=O)NCCCC[C@H](NC(=O)N[C@@H](CCC(=O)O)C(=O)O)C(=O)O)CC4)nn3)cc12.[68Ga+3] [[^68Ga]Ga-AV01030]
Adrenal glands uptake [1]: 3.13 ± 1.25 %ID/g
Blood uptake [1]: 5.75 ± 0.59 %ID/g
Bone uptake [1]: 4.48 ± 0.59 %ID/g
Brain uptake [1]: 0.12 ± 0.01 %ID/g
Fat uptake [1]: 0.68 ± 0.12 %ID/g
Heart uptake [1]: 2.41 ± 0.13 %ID/g
Kidneys uptake [1]: 44.0 ± 2.42 %ID/g
LNCaP tumor uptake [1]: 5.17 ± 0.51 %ID/g
Lacrimal glands uptake [1]: 0.44 ± 0.68 %ID/g
Large Intestine uptake [1]: 1.32 ± 0.29 %ID/g
Liver uptake [1]: 1.43 ± 0.26 %ID/g
Lungs uptake [1]: 2.93 ± 0.28 %ID/g
Muscle uptake [1]: 1.59 ± 0.14 %ID/g
Pancreas uptake [1]: 3.63 ± 0.29 %ID/g
Salivary glands uptake [1]: 4.76 ± 1.79 %ID/g
Seminal vesicle uptake [1]: 1.04 ± 0.13 %ID/g
Small Intestine uptake [1]: 1.58 ± 0.13 %ID/g
Spleen uptake [1]: 6.50 ± 1.37 %ID/g
Stomach uptake [1]: 0.44 ± 0.07 %ID/g
Testes uptake [1]: 0.70 ± 0.08 %ID/g
Thyroid uptake [1]: 8.33 ± 0.41 %ID/g
Tumor/blood uptake ratio [1]: 0.89 ± 0.03
Tumor/bone uptake ratio [1]: 1.17 ± 0.26
Tumor/kidney uptake ratio [1]: 0.11 ± 0.00
Tumor/muscle uptake ratio [1]: 3.25 ± 0.39
Adrenal glands uptake [2]: 3.15 ± 0.39 %ID/g
Blood uptake [2]: 5.68 ± 0.72 %ID/g
Bone uptake [2]: 3.59 ± 0.44 %ID/g
Brain uptake [2]: 0.12 ± 0.02 %ID/g
Fat uptake [2]: 0.63 ± 0.20 %ID/g
HEK293T:hFAP tumor uptake [2]: 3.69 ± 0.81 %ID/g
Heart uptake [2]: 2.20 ± 0.46 %ID/g
Kidneys uptake [2]: 30.0 ± 8.71 %ID/g
Lacrimal gland uptake [2]: 0.20 ± 0.24 %ID/g
Large Intestine uptake [2]: 1.15 ± 0.10 %ID/g
Liver uptake [2]: 1.51 ± 0.33 %ID/g
Lungs uptake [2]: 3.02 ± 0.25 %ID/g
Muscle uptake [2]: 1.78 ± 0.58 %ID/g
Pancreas uptake [2]: 3.26 ± 0.82 %ID/g
Salivary glands uptake [2]: 7.01 ± 2.25 %ID/g
Small Intestine uptake [2]: 1.23 ± 0.16 %ID/g
Spleen uptake [2]: 7.41 ± 1.75 %ID/g
Stomach uptake [2]: 0.42 ± 0.04 %ID/g
Testes uptake [2]: 0.66 ± 0.08 %ID/g
Thyroid uptake [2]: 7.70 ± 1.08 %ID/g
Tumor/bone uptake ratio [2]: 1.04 ± 0.31
Tumor/muscle uptake ratio [2]: 2.12 ± 0.30

N#C[C@@H]1CC(F)(F)CN1C(=O)CNC(=O)c1ccnc2ccc(OCc3cn(CC(=O)N[C@@H](CCCCNC(=O)CN4CCN(CC(=O)[O-])CCN(CC(=O)[O-])CCN(CC(=O)[O-])CC4)C(=O)NCC(=O)NC[C@H]4CC[C@H](C(=O)N[C@@H](Cc5c6ccccc6cc6ccccc56)C(=O)NCCCC[C@H](NC(=O)N[C@@H](CCC(=O)O)C(=O)O)C(=O)O)CC4)nn3)cc12.[68Ga+3] [[^68Ga]Ga-AV01038]
Adrenal glands uptake [1]: 3.69 ± 2.54 %ID/g
Blood uptake [1]: 7.07 ± 0.31 %ID/g
Bone uptake [1]: 4.64 ± 1.70 %ID/g
Brain uptake [1]: 0.15 ± 0.02 %ID/g
Fat uptake [1]: 1.01 ± 0.28 %ID/g
Heart uptake [1]: 3.26 ± 0.24 %ID/g
Kidneys uptake [1]: 40.5 ± 8.26 %ID/g
LNCaP tumor uptake [1]: 4.25 ± 0.86 %ID/g
Lacrimal glands uptake [1]: 0.06 ± 0.13 %ID/g
Large Intestine uptake [1]: 1.65 ± 0.31 %ID/g
Liver uptake [1]: 2.06 ± 0.13 %ID/g
Lungs uptake [1]: 3.74 ± 0.78 %ID/g
Muscle uptake [1]: 1.68 ± 0.21 %ID/g
Pancreas uptake [1]: 3.91 ± 0.20 %ID/g
Salivary glands uptake [1]: 6.41 ± 1.19 %ID/g
Seminal vesicle uptake [1]: 1.51 ± 0.08 %ID/g
Small Intestine uptake [1]: 2.12 ± 0.24 %ID/g
Spleen uptake [1]: 6.77 ± 4.86 %ID/g
Stomach uptake [1]: 0.64 ± 0.11 %ID/g
Testes uptake [1]: 1.04 ± 0.10 %ID/g
Thyroid uptake [1]: 11.1 ± 1.62 %ID/g
Tumor/blood uptake ratio [1]: 0.60 ± 0.13
Tumor/bone uptake ratio [1]: 0.97 ± 0.30
Tumor/kidney uptake ratio [1]: 0.10 ± 0.02
Tumor/muscle uptake ratio [1]: 2.52 ± 0.33
Adrenal glands uptake [2]: 6.14 ± 3.79 %ID/g
Blood uptake [2]: 7.45 ± 1.70 %ID/g
Bone uptake [2]: 3.03 ± 1.12 %ID/g
Brain uptake [2]: 0.13 ± 0.02 %ID/g
Fat uptake [2]: 0.53 ± 0.10 %ID/g
HEK293T:hFAP tumor uptake [2]: 3.64 ± 0.83 %ID/g
Heart uptake [2]: 2.69 ± 0.22 %ID/g
Kidneys uptake [2]: 25.0 ± 1.76 %ID/g
Lacrimal gland uptake [2]: 0.22 ± 0.16 %ID/g
Large Intestine uptake [2]: 0.99 ± 0.17 %ID/g
Liver uptake [2]: 2.16 ± 0.33 %ID/g
Lungs uptake [2]: 3.83 ± 0.55 %ID/g
Muscle uptake [2]: 1.23 ± 0.11 %ID/g
Pancreas uptake [2]: 3.82 ± 1.29 %ID/g
Salivary glands uptake [2]: 4.02 ± 0.69 %ID/g
Seminal vesicle uptake [2]: 1.15 ± 0.69 %ID/g
Small Intestine uptake [2]: 1.70 ± 0.19 %ID/g
Spleen uptake [2]: 5.47 ± 1.03 %ID/g
Stomach uptake [2]: 0.60 ± 0.18 %ID/g
Testes uptake [2]: 0.74 ± 0.09 %ID/g
Thyroid uptake [2]: 6.51 ± 1.07 %ID/g
Tumor/blood uptake ratio [2]: 0.49 ± 0.37
Tumor/bone uptake ratio [2]: 1.17 ± 0.40
Tumor/kidney uptake ratio [2]: 0.11 ± 0.02
Tumor/muscle uptake ratio [2]: 2.21 ± 0.17

Source: PMC9921851, “Synthesis and Preclinical Evaluation of Three Novel ^68Ga-Labeled Bispecific PSMA/FAP-Targeting Tracers for Prostate Cancer Imaging” (Molecules, 2023)
